Experiments:
Experiment in all cases: relative viability (nuclei count vs DMSO), 5 days (fraction); higher = more cells survive
Trametinib + OSI-027 = compound: CC(=O)Nc1cccc(-n2c(=O)n(C3CC3)c(=O)c3c(Nc4ccc(I)cc4F)n(C)c(=O)c(C)c32)c1 [Trametinib] + COc1cccc2cc(-c3nc([C@H]4CC[C@H](C(=O)O)CC4)n4ncnc(N)c34)[nH]c12 [OSI-027] (partner 0.5 µM)
Outline: (§1)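 Each reported value is a median over duplicate plates. It expresses relative viability: treated-well nuclei count divided by vehicle-well nuclei count. Lung cancer cell lines in 1536-well plates were dosed by pin tool a day after seeding, alone with one drug or with a fixed anchor-drug dose plus five library-drug doses (not always all listed) in √10 steps, and nuclei were counted after 5 days.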

[1] = compound: CN1C=C(C2=CC=CC=C21)/C=C\3/C4=C(C=CC=N4)NC3=O + CC1(C)CCC(c2ccc(Cl)cc2)=C(CN2CCN(c3ccc(C(=O)NS(=O)(=O)c4ccc(N[C@H](CCN5CCOCC5)CSc5ccccc5)c(S(=O)(=O)C(F)(F)F)c4)cc3)CC2)C1 [Navitoclax] (partner 0.5 µM)
Outline: as §1

Trametinib + Navitoclax = compound: CC(=O)Nc1cccc(-n2c(=O)n(C3CC3)c(=O)c3c(Nc4ccc(I)cc4F)n(C)c(=O)c(C)c32)c1 [Trametinib] + CC1(C)CCC(c2ccc(Cl)cc2)=C(CN2CCN(c3ccc(C(=O)NS(=O)(=O)c4ccc(N[C@H](CCN5CCOCC5)CSc5ccccc5)c(S(=O)(=O)C(F)(F)F)c4)cc3)CC2)C1 [Navitoclax] (partner 0.5 µM)
Outline: as §1

[2] = compound: CN1C=C(C2=CC=CC=C21)/C=C\3/C4=C(C=CC=N4)NC3=O + C[C@]1(O)C[C@@H](c2nc(-c3ccc4ccc(-c5ccccc5)nc4c3)c3c(N)nccn32)C1 [Linsitinib] (partner 1 µM)
Outline: as §1

Cell Line	relative viability (Trametinib + OSI-027; first compound 0.0025 µM)	relative viability (Trametinib + OSI-027; first compound 0.007906 µM)	relative viability (Trametinib + OSI-027; first compound 0.025 µM)	relative viability (Trametinib + OSI-027; first compound 0.07906 µM)	relative viability (Trametinib + OSI-027; first compound 0.25 µM)	relative viability ([1]; first compound 0.02 µM)	relative viability ([1]; first compound 0.06325 µM)	relative viability ([1]; first compound 0.2 µM)	relative viability ([1]; first compound 0.6325 µM)	relative viability ([1]; first compound 2 µM)	relative viability (Trametinib + Navitoclax; first compound 0.0025 µM)	relative viability (Trametinib + Navitoclax; first compound 0.007906 µM)	relative viability (Trametinib + Navitoclax; first compound 0.025 µM)	relative viability (Trametinib + Navitoclax; first compound 0.07906 µM)	relative viability (Trametinib + Navitoclax; first compound 0.25 µM)	relative viability ([2]; first compound 0.02 µM)	relative viability ([2]; first compound 0.06325 µM)	relative viability ([2]; first compound 0.2 µM)	relative viability ([2]; first compound 0.6325 µM)	relative viability ([2]; first compound 2 µM)
NCI-H3122	0.555	0.352	0.211	0.169	0.159	0.907	1.01	0.989	1.11	1.06	0.937	0.867	0.508	0.548	0.435	0.895	0.972	1.01	1.06	1.04
HCC-827	0.702	0.671	0.529	0.392	0.429	0.956	1.02	–	1.03	0.986	1.06	0.971	1.03	0.946	0.676	0.929	0.923	–	0.944	0.926
HARA	0.575	0.359	0.23	0.328	0.0752	1.09	1.15	1.04	1.17	1.17	0.984	1.1	1.14	1.06	0.976	0.93	0.92	1.03	0.932	1.06
NCI-H441	0.543	0.56	0.392	0.446	0.196	1.08	–	0.906	0.596	0.875	0.761	0.633	0.572	0.312	0.278	0.634	0.588	0.494	0.424	0.57
SK-MES-1	0.647	0.582	0.46	0.447	0.266	0.902	1.04	1.26	1.11	1.15	1.3	1.25	0.943	0.624	0.357	0.937	1.18	1.09	1.02	1.06
HCC-15	0.436	0.338	0.201	0.161	0.167	0.763	0.689	0.736	0.559	0.665	0.505	0.336	0.243	0.247	0.189	0.907	0.841	0.933	0.853	0.976
EPLC-272H	0.319	0.285	0.192	0.129	0.183	1.37	0.988	–	1.27	0.944	0.962	0.914	0.455	0.709	0.359	1.54	1.12	–	1.31	1.23
NCI-H2009	0.505	0.405	0.229	0.226	0.247	1.11	1.12	1.2	1.24	1.24	0.986	0.527	0.537	0.531	0.403	1.24	1.11	1.23	1.23	1.25
NCI-H520	0.225	0.272	0.246	0.248	0.261	0.935	1.03	1.09	1.17	1.17	1.11	1.15	1.04	1.01	0.77	0.87	0.808	0.963	0.96	1.02
NCI-H2405	0.651	0.621	0.488	0.43	0.412	0.891	0.803	0.65	1.1	0.732	0.732	0.515	0.48	0.423	0.305	0.871	0.912	0.783	0.954	0.816
LCLC-97TM1	0.346	0.379	0.268	0.272	0.271	0.322	–	–	0.566	0.36	0.427	0.451	0.216	0.207	0.122	0.164	–	–	0.203	0.179
NCI-H727	0.426	0.39	0.266	0.274	0.317	0.396	0.349	0.385	0.372	0.4	0.158	0.117	0.0956	0.0926	0.0927	0.285	0.204	0.282	0.323	0.263
NCI-H2228	0.498	0.427	0.222	0.237	0.192	1.22	0.796	–	0.67	0.812	0.782	0.803	0.706	0.626	0.548	0.53	0.463	–	0.603	0.759
LK-2	0.197	0.205	0.164	0.18	0.186	–	0.683	0.638	0.726	1.04	0.745	0.897	0.767	0.946	0.368	0.365	0.333	–	0.474	0.504
PC-3 [JPC-3]	0.803	0.635	0.675	0.595	0.581	0.782	0.743	0.788	0.812	0.683	0.815	0.793	0.709	0.705	0.455	0.947	0.902	0.974	0.889	0.917

Source: the supplement of paper PMC10307832
